Experimental data reported in US20220289692A1, “NLRP3 INHIBITORS” (Inflazome Limited, priority 2019, published 2022).

The molecules below were run against T1, NLRP3 (Homo sapiens, UniProt Q96P20) (assay: THP-1 cells pyroptosis assay (LPS priming, nigericin, resazurin read-out)). Conditions: 1.0 μg/ml LPS, 3 hrs compound, nigericin 5 μM 1 hr.
T1 sequence (Q96P20 whole entry): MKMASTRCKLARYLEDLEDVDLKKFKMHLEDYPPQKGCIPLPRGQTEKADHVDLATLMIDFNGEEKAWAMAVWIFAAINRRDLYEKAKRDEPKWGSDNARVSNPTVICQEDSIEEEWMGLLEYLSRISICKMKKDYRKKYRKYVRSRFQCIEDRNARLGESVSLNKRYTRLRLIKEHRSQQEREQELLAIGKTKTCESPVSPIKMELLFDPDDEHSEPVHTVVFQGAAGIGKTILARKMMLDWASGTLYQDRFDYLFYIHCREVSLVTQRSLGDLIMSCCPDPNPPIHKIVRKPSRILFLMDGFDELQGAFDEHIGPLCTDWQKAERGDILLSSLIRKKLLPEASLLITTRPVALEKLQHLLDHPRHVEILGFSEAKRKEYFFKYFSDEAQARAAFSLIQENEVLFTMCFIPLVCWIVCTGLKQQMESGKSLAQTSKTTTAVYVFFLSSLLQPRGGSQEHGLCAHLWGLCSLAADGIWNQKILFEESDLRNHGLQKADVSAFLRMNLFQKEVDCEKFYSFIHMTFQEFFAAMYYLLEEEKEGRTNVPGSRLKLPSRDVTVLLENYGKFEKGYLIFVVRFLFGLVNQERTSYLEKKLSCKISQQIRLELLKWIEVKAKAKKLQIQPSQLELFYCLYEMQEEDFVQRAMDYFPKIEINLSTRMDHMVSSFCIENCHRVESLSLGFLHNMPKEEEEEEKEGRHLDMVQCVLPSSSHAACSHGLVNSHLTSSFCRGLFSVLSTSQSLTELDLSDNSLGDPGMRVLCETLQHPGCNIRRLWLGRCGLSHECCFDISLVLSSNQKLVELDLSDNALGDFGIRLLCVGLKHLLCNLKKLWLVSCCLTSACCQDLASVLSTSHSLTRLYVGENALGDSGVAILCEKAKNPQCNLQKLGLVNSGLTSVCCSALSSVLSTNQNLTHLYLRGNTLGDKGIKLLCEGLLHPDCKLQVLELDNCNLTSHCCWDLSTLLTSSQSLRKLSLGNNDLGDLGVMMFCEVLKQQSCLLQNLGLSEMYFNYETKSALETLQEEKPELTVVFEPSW
Assay type: cell-based
Set-up: Seed THP-1 cells (25,000 cells/well) containing 1.0 μg/ml LPS in 40 μl of RPMI medium; host or cells: THP-1 cells, LPS-primed, nigericin-stimulated
Description: THP-1 cells (ATCC #TIB-202) were grown in RPMI containing L-glutamine (Gibco #11835) supplemented with 1 mM sodium pyruvate (Sigma #S8636) and penicillin (100 units/ml)/streptomycin (0.1 mg/ml) (Sigma #P4333) in 10% Fetal Bovine Serum (FBS) (Sigma #F0804). The cells were routinely passaged and grown to confluency (˜10^6 cells/ml). On the day of the experiment, THP-1 cells were harvested and resuspended into RPMI medium (without FBS). The cells were then counted and viability (>90%) checked by Trypan blue (Sigma #T8154). Appropriate dilutions were made to give a concentration of 625,000 cells/ml. To this diluted cell solution was added LPS (Sigma #L4524) to give a […] Final Assay Concentration (FAC). 40 μl of the final preparation was aliquoted into each well of a 96-well plate. The plate thus prepared was used for compound screening. The following method step-by-step assay was followed for compound screening. • 1. Seed THP-1 cells (25,000 cells/well) containing 1.0 μg/ml LPS in 40 μl of RPMI medium (without FBS) in 96-well, black walled, clear bottom cell culture plates coated with poly-D-lysine (VWR #734-0317) • 2. Add 5 μl compound (8 points half-log dilution, with 10 μM top dose) or vehicle (DMSO 0.1% FAC) to the appropriate wells • 3. Incubate for 3 hrs at 37° C., 5% CO2 • 4. Add 5 μl nigericin (Sigma #N7143) (FAC 5 μM) to all wells • 5. Incubate for 1 hr at 37° C., 5% CO2 • 6. At the end of the incubation period, spin plates at 300×g for 3 mins and remove supernatant • 7. Then add 50 μl of resazurin (Sigma #R7017) (FAC 100 μM resazurin in RPMI medium without FBS) and incubate plates for a further 1-2 hrs at 37° C. and 5% CO2 • 8. Plates were read in an Envision reader at Ex 560 nm and Em 590 nm • 9. IC50 data is fitted to a non-linear regression equation (log inhibitor vs response-variable slope 4-parameters) The results of the pyroptosis assay are summarised in Table 1 below as THP IC50.
`CCOC(=O)c1nnc(Nc2c3c(cc4c2CCC4)CCC3)[nH]1` [Example 1, ethyl 5-((1,2,3,5,6,7-hexahydro-s-indacen-4-yl)amino)-4H-1,2,4-triazole-3-carboxylate] gave an IC50 of no more than 2 µM.
Molecule `O=C(OCc1cccnc1)c1nnc(Nc2c3c(cc4c2CCC4)CCC3)[nH]1` [Example 2, pyridin-3-ylmethyl 5-((1,2,3,5,6,7-hexahydro-s-indacen-4-yl)amino)-4H-1,2,4-triazole-3-carboxylate] has an IC50 of no more than 10 µM.
`COC(=O)c1nnc(Nc2c(-c3ccnc(OC4CCN(C)CC4)c3)ccc3c2CCC3)[nH]1` [Example 3] showed an IC50 of no more than 10 µM.
`O=C(OCc1ccccc1)c1nnc(Nc2c3c(cc4c2CCC4)CCC3)[nH]1` [Example 4] was tested, and the IC50 was no more than 5 µM.
Work on `COC(=O)c1nnc(Nc2c3c(cc(C)c2-c2ccnc(OC)c2)CCC3)[nH]1` [Example 5] yielded an IC50 of no more than 5 µM.
`CC(C)OC(=O)c1nnc(Nc2c3c(cc4c2CCC4)CCC3)[nH]1` [Example 6] showed an IC50 of no more than 10 µM.
Molecule `COC(=O)c1nnc(Nc2c3c(cc4c2CCC4)CCC3)[nH]1` [Example 7] has an IC50 of no more than 2 µM.
For `CCOC(=O)c1nnc(Nc2c(-c3ccnc(OC)c3)ccc3c2CCC3)[nH]1` [Example 8], the IC50 was no more than 5 µM.

These molecules were tested against T1, NLRP3 (assay: Human whole blood IL-1β release assay (LPS, nigericin, AlphaLisa)). Conditions: 1 μg/ml LPS, 3 hrs compound, nigericin 10 μM 1 hr, read-out: HWB IC50.
Assay type: cell-based
Set-up: Plate out 80 μl of whole blood containing 1 μg/ml of LPS in 96-well, clear bottom cell culture plate; from tissue; host or cells: human whole blood from healthy donors, LPS-primed, nigericin-stimulated
Description: For systemic delivery, the ability to inhibit NLRP3 when the compounds are present within the bloodstream is of great importance. For this reason, the NLRP3 inhibitory activity of a number of compounds in human whole blood was investigated in accordance with the following protocol.
Human whole blood in Li-heparin tubes was obtained from healthy donors from a volunteer donor panel. • 1. Plate out 80 μl of whole blood containing 1 μg/ml of LPS in 96-well, clear bottom cell culture plate (Corning #3585) • 2. Add 10 μl compound (8 points half-log dilution with 10 μM top dose) or vehicle (DMSO 0.1% FAC) to the appropriate wells • 3. Incubate for 3 hrs at 37° C., 5% CO2 • 4. Add 10 μl nigericin (Sigma #N7143) (10 μM FAC) to all wells • 5. Incubate for 1 hr at 37° C., 5% CO2 • 6. At the end of the incubation period, spin plates at 300×g for 5 mins to pellet cells and remove 20 μl of supernatant and add to 96-well v-bottom plates for IL-1β analysis (note: these plates containing the supernatants can be stored at −80° C. to be analysed at a later date) • 7. IL-1β was measured according to the manufacturer protocol (Perkin Elmer-AlphaLisa IL-1 Kit AL220F-5000) • 8. IC50 data is fitted to a non-linear regression equation (log inhibitor vs response-variable slope 4-parameters)
`CCOC(=O)c1nnc(Nc2c3c(cc4c2CCC4)CCC3)[nH]1` [Example 1, ethyl 5-((1,2,3,5,6,7-hexahydro-s-indacen-4-yl)amino)-4H-1,2,4-triazole-3-carboxylate] gave an IC50 of no more than 5 µM.
